Reference: patent publication US20050074879A1, “Antisense oligonucleotide modulation of STAT3 expression” (priority 2000, published 2005)
Oligonucleotides are written 5' to 3', each unit as a sugar letter and its base; * is a phosphorothioate linkage, no mark a phosphodiester; rarer units and linkages stand in square brackets, end groups in braces. Plain capitals give the bases only. e = 2'-O-(2-methoxyethyl) (MOE); [5mC] = 5-methylcytosine; d = 2'-deoxy (DNA)

Legend:
Mouse STAT3 mRNA = experiment: Inhibition of mouse STAT3 mRNA expression in BCL1 cells (electroporation; RNase protection/Northern blot); format: cell-based; set-up: % mRNA INHIBITION: dose or concentration left out as unconfirmed; settings: BCL1 cells electroporated with oligonucleotide, RNA collected 24 hours later; for % mRNA EXPRESSION: control 100%
Procedure: The B lymphoma cell line, BCL1 was obtained from ATCC (Rockville, Md.). BCL1 cells were cultured in RPMI 1640 medium.
BCL1 cells (5×10^6 cells in PBS) were transfected with oligonucleotides by electroporation, at 200V, […]. using a BTX Electro Cell Manipulator 600 (Genetronics, San Diego, Calif.). For an initial screen, BCL1 were electroporated with […] oligonucleotide and RNA collected 24 hours later. Controls without oligonucleotide were subjected to the same electroporation conditions.
Total cellular RNA was isolated using the RNEASY7 kit (Qiagen, Santa Clarita, Calif.). RNAse protection experiments were conducted using RIBOQUANT™ kits and template sets according to the manufacturer's instructions (Pharmingen, San Diego, Calif.). Northern blotting was performed as described in Chiang, M-Y. et al. (J. Biol. Chem., 1991, 266, 18162-18171), using a rat cDNA probe prepared by Xho I/Sal I restriction digest of psvsport-1 plasmid (ATCC, Rockville, Md.). mRNA levels were quantitated using a PhosphorImager (Molecular Dynamics, Sunnyvale, Calif.).

Human STAT3 mRNA = experiment: Inhibition of human STAT3 mRNA expression in U266 cells, Northern blot; format: cell-based; settings: U266 cells, 2.5 μM oligonucleotide, electroporation, 24 hours; for % mRNA EXPRESSION: percent of control
Procedure: U266 human myeloma cell lines (originally obtained from American Type Culture Collection) were maintained in RPMI 1640 medium supplemented with 10% fetal calf serum. Cells (15×10^6 cells in PBS) were transfected with oligonucleotides at 200V with a single 6-millisecond pulse using a BTX Electro Square Porator T820 (Genetronics, San Diego Calif.). The cells were incubated for 24 hours before RNA extraction.
Total cellular RNA was isolated using the Rneasy kit (Qiagen, Santa Clarita, Calif.). Northern blotting was perfomed on 15 μg of RNA using a cDNA probe prepared from MB-MDA 468 RNA by standard RT-PCR followed by a nested primer reaction. Signals were quantitated using a Molecular Dynamics Phosphorimager.
In order to examine the importance of STAT3 expression in multiple myeloma cells, a series of 20mer STAT3 antisense oligonucleotides were designed and synthesized, using phosphorothioate chemistry and incorporating 2′-O-methoxyethyl modifications to improve hybridization affinity and nuclease resistance.

Substance | % mRNA INHIBITION (Mouse STAT3 mRNA) [%] | % mRNA EXPRESSION (Mouse STAT3 mRNA) [%] | % mRNA INHIBITION (Human STAT3 mRNA) [%] | % mRNA EXPRESSION (Human STAT3 mRNA) [%]
17145 (antisense eA*eA*e[5mC]*eT*eT*dG*dG*dT*dC*dT*dT*dC*dA*dG*dG*eT*eA*e[5mC]*eG*eG) [compound 17145] | 11 | 89 |  | 
17146 (antisense eA*eT*e[5mC]*eA*eA*dT*dG*dA*dA*dT*dC*dT*dA*dA*dA*eG*eT*eG*e[5mC]*eG) [compound 17146] | 9 | 91 |  | 
17147 (antisense eT*e[5mC]*eA*eG*e[5mC]*dA*dC*dC*dT*dT*dC*dA*dC*dC*dG*eT*eT*eA*eT*eT) [compound 17147] | 30 | 70 |  | 
17149 (antisense eG*eG*eT*eT*eT*dC*dA*dG*dC*dT*dC*dC*dT*dC*dA*e[5mC]*eA*eT*eG*eG) [compound 17149] | 30 | 70 |  | 
17150 (antisense eT*eA*eA*eA*eA*dA*dA*dA*dA*dA*dA*dA*dT*dC*dT*eG*eG*eA*eA*e[5mC]) [compound 17150] | 5 | 95 |  | 
17151 (antisense eA*eA*eG*eA*eT*dA*dG*dC*dA*dG*dA*dA*dG*dT*dA*eG*eG*eA*eA*eA) [compound 17151] | 8 | 92 |  | 
17153 (antisense eA*eT*e[5mC]*eA*e[5mC]*dC*dC*dA*dC*dA*dC*dT*dC*dA*dC*eT*e[5mC]*eA*eT*eT) [compound 17153] | 56 | 44 |  | 
17154 (antisense e[5mC]*e[5mC]*eT*eT*eT*dG*dC*dC*dT*dC*dC*dC*dT*dT*dC*eT*eG*e[5mC]*eT*e[5mC]) [compound 17154] | 20 | 80 |  | 
17155 (antisense eT*eG*eA*eA*eA*dA*dA*dG*dG*dA*dG*dG*dG*dC*dA*eG*eG*e[5mC]*eG*eG) [compound 17155] | 22 | 78 |  | 
17156 (antisense e[5mC]*eA*e[5mC]*e[5mC]*eA*dG*dG*dA*dG*dG*dC*dA*dC*dT*dT*eG*eT*e[5mC]*eT*eA) [compound 17156] | 60 | 40 |  | 
17157 (antisense eA*eA*e[5mC]*e[5mC]*eT*dC*dC*dT*dG*dG*dG*dC*dT*dT*dA*eG*eT*e[5mC]*e[5mC]*eT) [compound 17157] | 47 | 53 |  | 
113170 (eA*eG*e[5mC]*eT*eG*dA*dT*dT*d[5mC]*d[5mC]*dA*dT*dT*dG*dG*eG*e[5mC]*e[5mC]*eA*eT) [compound 113170] |  |  | 10.4 | 89.6
113171 (e[5mC]*e[5mC]*eA*eG*eG*dA*dG*dA*dT*dT*dA*dT*dG*dA*dA*eA*e[5mC]*eA*e[5mC]*e[5mC]) [compound 113171] |  |  |  | 110.2
113172 (antisense eA*e[5mC]*e[5mC]*eG*eT*dG*dT*dG*dT*d[5mC]*dA*dA*dG*d[5mC]*dT*eG*e[5mC]*eT*eG*eT) [compound 113172] |  |  | 3.9 | 96.1
113173 (antisense e[5mC]*e[5mC]*eA*eT*eT*dG*dG*dG*dA*dA*dG*d[5mC]*dT*dG*dT*e[5mC]*eA*e[5mC]*eT*eG) [compound 113173] |  |  |  | 119
113175 (antisense eG*e[5mC]*eG*eG*e[5mC]*dT*dA*dT*dA*d[5mC]*dT*dG*d[5mC]*dT*dG*eG*eT*e[5mC]*eA*eA) [compound 113175] |  |  | 24.2 | 75.8
113178 (antisense eT*eG*eA*eT*eT*d[5mC]*dT*dT*d[5mC]*d[5mC]*d[5mC]*dA*d[5mC]*dA*dG*eG*e[5mC]*eA*e[5mC]*e[5mC]) [compound 113178] |  |  |  | 143.9
113181 (antisense e[5mC]*e[5mC]*e[5mC]*eG*e[5mC]*d[5mC]*dA*dG*d[5mC]*dT*d[5mC]*dA*d[5mC]*dT*d[5mC]*eA*e[5mC]*eG*eA*eT) [compound 113181] |  |  |  | 105.4
